# Measured values as given in paper PMC9569971, “New Oxazolo[5,4-d]pyrimidines as Potential Anticancer Agents: Their Design, Synthesis, and In Vitro Biological Activity Research” (International Journal of Molecular Sciences, 2022).
# How the values were obtained:
# [1] = MTT viability assay, NHDF; type: cell-based, human; conditions: human, normal human dermal fibroblasts (NHDF), tested 1–500 µM
# [2] = tested on: lung adenocarcinoma (A549); assay: MTT viability assay, A549; type: cell-based, human
# [3] = MTT viability assay, L929; type: cell-based, murine; conditions: mouse, L929 fibroblasts, tested 1–500 µM
# [4] = tested on: metastatic colon adenocarcinoma (LoVo); assay: MTT viability assay, LoVo; type: cell-based, human
# Experimental: When the confluence was greater than 70%, adherent cell lines were detached from the bottle surface with a TrypLE solution and then used in assays or reduced. The cells were collected into centrifuge tubes and centrifuged at 1000× g for 5 min at room temperature. The supernatant was removed to dry. The cell pellets were then resuspended in an appropriate medium. The cells were counted using a Bürker chamber and resuspended in 96-well plates to a cell density of 10,000 cells per well for MTT assay. For the rhodamine accumulation test and the detection of apoptosis assay, cells were seeded at a density of 30,000 per well. In the migration assay, cells were seeded at a density of 20,000 per well, and monolayer formation was awaited.
# In this study, normal human dermal fibroblasts (NHDFs), breast cancer cells (MCF7), human lung adenocarcinoma cells (A549), murine fibroblasts (L929), colon adenocarcinoma cells (HT29), and colorectal adenocarcinoma cells (LoVo) were used. All cell lines were cultured in the recommended media. […] The human lung adenocarcinoma cell line A549 and breast cancer cell line MCF-7 were obtained from the ECACC. These cell lines were cultured in Eagle’s minimal essential medium (MEM). Murine fibroblast L929 (Sigma-Aldrich, Merck Group, Headquarters, Darmstadt, Germany; the European Collection of Authenticated Cell Cultures—ECACC) cells were grown in DMEM. […] All media were supplemented with 10% FBS and 100 µg/mL of penicillin–streptomycin.
# All compounds were dissolved in DMSO and the reference drugs were dissolved in physiological saline to concentrations of 10 mM. Concentrations from 1 to 500 μM in the media recommended for the cell lines were prepared for the tests.
# All of the synthesized derivatives were evaluated via the MTT assay. All cell lines were seeded into 96-well plates at a density of 10,000 cells per well. To allow the cells to adhere to the surface of the plates, they were incubated overnight before the application of the test compounds. […] The tests were performed for concentrations of 1, 5, 10, 25, 50, 100, 250, and 500 μM. The solutions of the test compounds were removed from the culture on the 96-well plates. […] The supernatant was then removed. The violet crystal was dissolved in isopropanol for 30 min by shaking. Absorbance was measured at 570 nm.
# Biological assays were performed in three independent replicates, and each replicate used four samples. Three repetitions were made for the ELISA determinations. For the assessment of cytotoxicity, mathematical models were developed using the GraphPad PRISM software, based on which CC50 was determined. The values of CC50 were estimated based on nonlinear regression using the dependence of the biological effect on the molar concentrations of the compounds (four-parameter logistic model with Hill slope).
# BCL-2 = BCL-2 Human ELISA Kit, HT29 lysate; type: cell-based; conditions: lysate of HT29 cells treated with 3g; SD ±0.11
# Experimental: The assay was performed on a lysate of the HT29 colon adenocarcinoma cell line treated with compound 3g. The wells of the assay microplate were coated with a BCL-2-specific antibody, and the BCL-2 present in the test and standards was bound to the antibodies adsorbed in the microwells, which were washed twice with 400 µL of washing buffer per well with careful aspiration. The washing buffer was left in the wells for 15 s before aspiration. Care was taken not to scratch the surface of the microwells. Following the final washing step, the wells were emptied and excess washing buffer was discarded. Two rows of the human standard BCL-2 were prepared at dilutions ranging from 32.0 to 0.5 ng/mL. Biotin conjugate was prepared, and 50 µL of biotin conjugate was added to all wells, covered with adhesive foil, and incubated at room temperature (18 to 25 °C) for 2 h on a microplate shaker. The adhesive film was removed and washed 3 times. […] The color change of the mixture was monitored with an ELISA reader at 620 nm. […] The results were read immediately after the stop solution was added. The reading was taken at the original wavelength of 450 nm. […]
# Biological assays were performed in three independent replicates, and each replicate used four samples. […] For the assessment of cytotoxicity, mathematical models were developed using the GraphPad PRISM software, based on which CC50 was determined. […]
smiles,measurement,setting,value
"Cc1noc(N)c1-c1nc2c(NCCCN(C)C)ncnc2o1 [Compound 3g, 2-(5-Amino-3-methylisoxazol-4-yl)-7-N-[3-(N,N-dimethylamino)propyl]aminooxazolo[5,4-d]pyrimidine]",CC50,[1],156 ± 15.5 µM
same,SI (selectivity index),[2]; CC50 NHDF / CC50 A549,1.123
same,CC50,"[2]; Homo sapiens, A549, MTT, tested 1–500 µM",138 ± 12.9 µM
same,CC50,[3],83.7 ± 4.42 µM
same,SI (selectivity index),[4]; CC50 NHDF / CC50 LoVo,0.695
same,CC50,"[4]; Homo sapiens, LoVo, MTT, tested 1–500 µM",224 ± 17.1 µM
same,BCL-2 concentration,BCL-2,0.41 ng/mL
